Reference: patent US12110295B2, “WD40 repeat domain protein 5 (WDR5) degradation/disruption compounds and methods of use” (Icahn School of Medicine at Mount Sinai, priority 2018, dated 2024)
Entries after “also recorded” stand apart in the source; their conditions may differ.

Experiments:
MIAPACA2 cells = assay: MTT cell proliferation assay in MIAPACA2 cells; assay type: cell-based; conditions: 6 days, FIG. 11; for proliferation of MIAPACA2 cells: 0.01, 0.03, 0.1, 0.5, 1, 5 and 10 μM
Experimental: Assessment of the cell proliferation effects of WDR5 degraders XF056-132, XF056-173 and XF067-67 in MIAPACA2 cells (FIG. 11). MIAPACA2 cells were treated with DMSO or indicated compounds at 0.01 μM, 0.03 μM, 0.1 μM, 0.5 μM, 1 μM, 5 μM, and 10 μM for 6 days. MTT assay was used for detecting cell proliferation effects.
MIAPACA2 and Hela cells were cultured in DMEM supplemented with 10% FBS and 1% Penicillin/Streptomycin.

WDR5 = WDR5 (Homo sapiens, UniProt P61964); assay: Screening of putative WDR5 degraders by Western blot in MV4;11 and/or MIAPACA2 cells; assay type: cell-based; set-up: After WDR5 degrader treatment, cells were collected and lysed; endogenous in cells; host or cells: MV4;11 and/or MIAPACA2; conditions: summary of screening, FIGS. 6-10
How it was run: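 MV4;11 (1×10^6/well) or MIAPACA2 (1×10^5/well) cells treated 18 h with compound at paired doses between 0.1 and 10 μM, DMSO as control. Total lysates immunoblotted for WDR5 with vinculin, tubulin or GAPDH loading controls; fluorescent secondary detection.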

effective degradation of WDR5 in MV4;11 and/or MIAPACA2 cells (WDR5) | SMILES | proliferation of MIAPACA2 cells (MIAPACA2 cells) | cell killing effect, rank among the 3 compounds (MIAPACA2 cells; MIAPACA2 cells)
able to effectively degrade WDR5 | C[C@@H]1CN(c2cc(F)c(C3=CCN(c4ncc(CN5CCN(C(=O)CNc6cccc7c6C(=O)N(C6CCC(=O)NC6=O)C7=O)CC5)cn4)CC3)cc2NC(=O)c2c[nH]c(=O)cc2C(F)(F)F)C[C@H](C)N1C (stereo partly drawn) [XF078-149, N-(5-(1-(5-((4-((2-(2,6-dioxopiperidin-3-yl)-1,3-dioxoisoindolin-4-yl)glycyl)piperazin-1-yl)methyl)pyrimidin-2-yl)-1,2,3,6-tetrahydropyridin-4-yl)-4-fluoro-2-((3S,5R)-3,4,5-trimethylpiperazin-1-yl)phenyl)-6-oxo-4-(trifluoromethyl)-1,6-dihydropyridine-3-carboxamide] | – | –
able to effectively degrade WDR5 | C[C@@H]1CN(c2cc(F)c(C3=CCN(c4ncc(CN5CCN(C(=O)CCNc6cccc7c6C(=O)N(C6CCC(=O)NC6=O)C7=O)CC5)cn4)CC3)cc2NC(=O)c2c[nH]c(=O)cc2C(F)(F)F)C[C@H](C)N1C (stereo partly drawn) [XF078-150, N-(5-(1-(5-((4-(3-((2-(2,6-dioxopiperidin-3-yl)-1,3-dioxoisoindolin-4-yl)amino)propanoyl)piperazin-1-yl)methyl)pyrimidin-2-yl)-1,2,3,6-tetrahydropyridin-4-yl)-4-fluoro-2-((3S,5R)-3,4,5-trimethylpiperazin-1-yl)phenyl)-6-oxo-4-(trifluoromethyl)-1,6-dihydropyridine-3-carboxamide] | – | –
able to effectively degrade WDR5 | C[C@@H]1CN(c2cc(F)c(C3=CCN(c4ncc(CN5CCN(C(=O)CCOCCOCCNc6cccc7c6C(=O)N(C6CCC(=O)NC6=O)C7=O)CC5)cn4)CC3)cc2NC(=O)c2c[nH]c(=O)cc2C(F)(F)F)C[C@H](C)N1C (stereo partly drawn) [XF078-157, N-(5-(1-(5-((4-(3-(2-(2-((2-(2,6-dioxopiperidin-3-yl)-1,3-dioxoisoindolin-4-yl)amino)ethoxy)ethoxy)propanoyl)piperazin-1-yl)methyl)pyrimidin-2-yl)-1,2,3,6-tetrahydropyridin-4-yl)-4-fluoro-2-((3S,5R)-3,4,5-trimethylpiperazin-1-yl)phenyl)-6-oxo-4-(trifluoromethyl)-1,6-dihydropyridine-3-carboxamide] | – | –
able to effectively degrade WDR5 | C[C@@H]1CN(c2cc(F)c(C3=CCN(c4ncc(CN5CCN(C(=O)CCOCCOCCOCCNc6cccc7c6C(=O)N(C6CCC(=O)NC6=O)C7=O)CC5)cn4)CC3)cc2NC(=O)c2c[nH]c(=O)cc2C(F)(F)F)C[C@H](C)N1C (stereo partly drawn) [XF078-158, N-(5-(1-(5-((4-(3-(2-(2-(2-((2-(2,6-dioxopiperidin-3-yl)-1,3-dioxoisoindolin-4-yl)amino)ethoxy)ethoxy)ethoxy)propanoyl)piperazin-1-yl)methyl)pyrimidin-2-yl)-1,2,3,6-tetrahydropyridin-4-yl)-4-fluoro-2-((3S,5R)-3,4,5-trimethylpiperazin-1-yl)phenyl)-6-oxo-4-(trifluoromethyl)-1,6-dihydropyridine-3-carboxamide] | – | –
able to effectively degrade WDR5 | C[C@@H]1CN(c2cc(F)c(C3=CCN(c4ncc(CN5CCN(C(=O)CCOCCOCCOCCOCCNc6cccc7c6C(=O)N(C6CCC(=O)NC6=O)C7=O)CC5)cn4)CC3)cc2NC(=O)c2c[nH]c(=O)cc2C(F)(F)F)C[C@H](C)N1C (stereo partly drawn) [XF078-159, N-(5-(1-(5-((4-(1-((2-(2,6-dioxopiperidin-3-yl)-1,3-dioxoisoindolin-4-yl)amino)-3,6,9,12-tetraoxapentadecan-15-oyl)piperazin-1-yl)methyl)pyrimidin-2-yl)-1,2,3,6-tetrahydropyridin-4-yl)-4-fluoro-2-((3S,5R)-3,4,5-trimethylpiperazin-1-yl)phenyl)-6-oxo-4-(trifluoromethyl)-1,6-dihydropyridine-3-carboxamide] | – | –
able to effectively degrade WDR5 | C[C@@H]1CN(c2cc(F)c(C3=CCN(c4ncc(CN5CCN(C(=O)CCOCCOCCOCCOCCOCCNc6cccc7c6C(=O)N(C6CCC(=O)NC6=O)C7=O)CC5)cn4)CC3)cc2NC(=O)c2c[nH]c(=O)cc2C(F)(F)F)C[C@H](C)N1C (stereo partly drawn) [XF078-160, N-(5-(1-(5-((4-(1-((2-(2,6-dioxopiperidin-3-yl)-1,3-dioxoisoindolin-4-yl)amino)-3,6,9,12,15-pentaoxaoctadecan-18-oyl)piperazin-1-yl)methyl)pyrimidin-2-yl)-1,2,3,6-tetrahydropyridin-4-yl)-4-fluoro-2-((3S,5R)-3,4,5-trimethylpiperazin-1-yl)phenyl)-6-oxo-4-(trifluoromethyl)-1,6-dihydropyridine-3-carboxamide] | – | –

More lines, now with the values behind:

SMILES | effective degradation of WDR5 in MV4;11 and/or MIAPACA2 cells (WDR5) | proliferation of MIAPACA2 cells (MIAPACA2 cells) | cell killing effect, rank among the 3 compounds (MIAPACA2 cells; MIAPACA2 cells)
Cc1ncsc1-c1ccc(CNC(=O)[C@@H]2C[C@@H](O)CN2C(=O)[C@@H](NC(=O)CCCCCCCCCNC(=O)c2ccc(-c3ccc(N4C[C@@H](C)N(C)[C@@H](C)C4)c(NC(=O)c4c[nH]c(=O)cc4C(F)(F)F)c3)c(F)c2)C(C)(C)C)cc1 [XF056-173, N-(2′-fluoro-4′-((10-(((S)-1-((2S,4R)-4-hydroxy-2-((4-(4-methylthiazol-5-yl)benzyl)carbamoyl)pyrrolidin-1-yl)-3,3-dimethyl-1-oxobutan-2-yl)amino)-10-oxodecyl)carbamoyl)-4-((3R,5S)-3,4,5-trimethylpiperazin-1-yl)-[1,1′-biphenyl]-3-yl)-6-oxo-4-(trifluoromethyl)-1,6-dihydropyridine-3-carboxamide] | able to effectively degrade WDR5 | significantly decreased the cell proliferation; also recorded: significantly reduced the proliferation of MIAPACA2 cells | –
Cc1ncsc1-c1ccc([C@H](C)NC(=O)[C@@H]2C[C@@H](O)CN2C(=O)[C@@H](NC(=O)CNC(=O)c2ccc(F)c(-c3ccc(N4C[C@@H](C)N(C)[C@@H](C)C4)c(NC(=O)c4c[nH]c(=O)cc4C(F)(F)F)c3)c2)C(C)(C)C)cc1 [XF067-67, N-(2′-fluoro-5′-((2-(((S)-1-((2S,4R)-4-hydroxy-2-(((S)-1-(4-(4-methylthiazol-5-yl)phenyl)ethyl)carbamoyl)pyrrolidin-1-yl)-3,3-dimethyl-1-oxobutan-2-yl)amino)-2-oxoethyl)carbamoyl)-4-((3S,5R)-3,4,5-trimethylpiperazin-1-yl)-[1,1′-biphenyl]-3-yl)-6-oxo-4-(trifluoromethyl)-1,6-dihydropyridine-3-carboxamide] | – | significantly decreased the cell proliferation; also recorded: significantly reduced the proliferation of MIAPACA2 cells | the best cell killing effect among the 3 compounds
Cc1ncsc1-c1ccc(CNC(=O)[C@@H]2C[C@@H](O)CN2C(=O)[C@@H](NC(=O)CCCCCCCC(=O)N2CCN(Cc3cnc(N4CC=C(c5cc(NC(=O)c6c[nH]c(=O)cc6C(F)(F)F)c(N6C[C@@H](C)N(C)[C@@H](C)C6)cc5F)CC4)nc3)CC2)C(C)(C)C)cc1 [XF078-146, N-(4-fluoro-5-(1-(5-((4-(9-(((S)-1-((2S,4R)-4-hydroxy-2-((4-(4-methylthiazol-5-yl)benzyl)carbamoyl)pyrrolidin-1-yl)-3,3-dimethyl-1-oxobutan-2-yl)amino)-9-oxononanoyl)piperazin-1-yl)methyl)pyrimidin-2-yl)-1,2,3,6-tetrahydropyridin-4-yl)-2-((3S,5R)-3,4,5-trimethylpiperazin-1-yl)phenyl)-6-oxo-4-(trifluoromethyl)-1,6-dihydropyridine-3-carboxamide] | able to effectively degrade WDR5 | – | –
Cc1ncsc1-c1ccc(CNC(=O)[C@@H]2C[C@@H](O)CN2C(=O)[C@@H](NC(=O)CCCCCCCCC(=O)N2CCN(Cc3cnc(N4CC=C(c5cc(NC(=O)c6c[nH]c(=O)cc6C(F)(F)F)c(N6C[C@@H](C)N(C)[C@@H](C)C6)cc5F)CC4)nc3)CC2)C(C)(C)C)cc1 [XF078-147, N-(4-fluoro-5-(1-(5-((4-(10-(((S)-1-((2S,4R)-4-hydroxy-2-((4-(4-methylthiazol-5-yl)benzyl)carbamoyl)pyrrolidin-1-yl)-3,3-dimethyl-1-oxobutan-2-yl)amino)-10-oxodecanoyl)piperazin-1-yl)methyl)pyrimidin-2-yl)-1,2,3,6-tetrahydropyridin-4-yl)-2-((3S,5R)-3,4,5-trimethylpiperazin-1-yl)phenyl)-6-oxo-4-(trifluoromethyl)-1,6-dihydropyridine-3-carboxamide] | able to effectively degrade WDR5 | – | –
Cc1ncsc1-c1ccc(CNC(=O)[C@@H]2C[C@@H](O)CN2C(=O)[C@@H](NC(=O)CCCCCCCCCC(=O)N2CCN(Cc3cnc(N4CC=C(c5cc(NC(=O)c6c[nH]c(=O)cc6C(F)(F)F)c(N6C[C@@H](C)N(C)[C@@H](C)C6)cc5F)CC4)nc3)CC2)C(C)(C)C)cc1 [XF078-148, N-(4-fluoro-5-(1-(5-((4-(11-(((S)-1-((2S,4R)-4-hydroxy-2-((4-(4-methylthiazol-5-yl)benzyl)carbamoyl)pyrrolidin-1-yl)-3,3-dimethyl-1-oxobutan-2-yl)amino)-11-oxoundecanoyl)piperazin-1-yl)methyl)pyrimidin-2-yl)-1,2,3,6-tetrahydropyridin-4-yl)-2-((3S,5R)-3,4,5-trimethylpiperazin-1-yl)phenyl)-6-oxo-4-(trifluoromethyl)-1,6-dihydropyridine-3-carboxamide] | able to effectively degrade WDR5 | – | –
